Experimental data published in US10774080B2, “Pyrimidine compound as JAK kinase inhibitor” (THERAVANCE BIOPHARMA R&D IP, LLC, priority 2017, dated 2020).

Columns and labels:
CCL2 gene expression = test: Assay 7: ex vivo JAK PD assay, freshly excised human skin, CCL2; conditions: 0.5% ointment, about 40 hours continuous exposure, Th1-skewed stimulation (TNFα, IFNγ, IL-12), vs vehicle
Method: Assay 7: Ex Vivo JAK Pharmacodynamic (PD) Assay Using Human Freshly Excised Skin An ex vivo JAK pharmacodynamics (PD) assay was conducted using human isolated skin tissue. The PD assay used fresh human skin (dermatome of 750 μm thickness) that was mounted in static Franz cells with a surface area of ˜0.5 cm^2. The receiver chambers of the Franz cells were filled with warm (37° C.) cornification media and placed in an incubator at 37° C. The skin was topically dosed with 10 μL ([…]) of compound (I) or vehicle and was left undisturbed overnight (˜24 hours). The next day, with no re-application of the test compound or vehicle, the media was replaced with a Th1-skewed stimulation cocktail consisting of TNFα, IFNγ and IL-12. The skin was left undisturbed for an additional 16 hours, and then harvested and processed for RNA extraction and qPCR of biomarkers: CXCL10, CCL2. GAPDH was used as an internal standard. The compound (I) was formulated in an ointment formulation at 0.5% strength. A total of three skin donors (tested in quadruplicates/sample/treatment) were used. Treatment effect was calculated as the percent increase or decrease in stimulation compared to the vehicle group. [table]

[1] = tested on: IL-13 stimulated STAT6 phosphorylation in normal human epidermal keratinocytes; test: Assay 13: inhibition of IL-13 stimulated pSTAT6 in normal human epidermal keratinocytes; type: cell-based; conditions: Keratinocyte, read-out: pIC50 for inhibition of IL-13 induced STAT6 phosphorylation (converted)
Method: Assay 13: Inhibition of IL-13 Stimulated pSTAT6 in Normal Human Epidermal Keratinocytes
The potency of test compounds for inhibition of interleukin-13 (IL-13) stimulated STAT6 phosphorylation was measured in the normal human epidermal keratinocytes (ATCC) using AlphaLisa. Phosphorylated STAT6 was measured via the AlphaLISA SureFire Ultra pSTAT6 (Tyr641) kit (PerkinElmer).
Primary epidermal keratinocytes were cultured in a 37° C., 5% CO2 humidified incubator in dermal cell basal medium (ATCC) supplemented with keratinocyte growth kit (ATCC) and 1× Pen/Strep (Life Technologies). […]
After cytokine stimulation, cells were lysed with 5 ul of 5× AlphaLisa Lysis Buffer (PerkinElmer) containing 1× PhosStop and Complete tablets (Roche). […] Phosphorylated STAT6 was measured via the pSTAT6 AlphaLisa kit (PerkinElmer). […] Luminescence was measured with excitation at 689 nm and emission at […] using an EnVision plate reader (PerkinElmer) under green filtered <100 lux light.
Luminescence signals were recorded and utilized to calculate the percent inhibition values based on DMSO and controls. For dose-response analysis, percent inhibition data were plotted vs. compound concentrations, and IC50 values were determined from a 4-parameter robust fit model with the Prism software.

[2] = Assay 8: human skin permeability assay (MedFlux-HT flow-through diffusion cell); type: in vitro ADME; conditions: 0.5% Ointment
Method: Assay 8: Human Skin Permeability Assay The objective of this experiment was to assess the percutaneous absorption of test compounds through human skin following topical application. The model uses excised human skin mounted in specially designed diffusion chambers (static or flow-through) that allow the skin to be maintained at a temperature and humidity that match real use conditions. The formulation was applied to the surface of the skin and the penetration of the drug is measured by monitoring its rate of appearance in the receptor solution flowing underneath the skin samples. This in vitro system allows carefully control of many of the potential variables involved in topical application, such as dosing volumes, humidity, temperature, drug stability, and skin thickness. […] This system was developed to specifically minimize the dosing area during in vitro experiments, thus allowing more dosing replications within the limited surface area of ex vivo human skin. The diffusion cells were placed in cell warming supports and heated using a circulating water bath in order to maintain the skin surface temperature at approx. 32° C. The cells were connected to multi-channel peristaltic pumps and maintained at a flow-rate of approximately 10 μL/min (600 μL/hr) for a continuous flow of receiver fluid directly under the skin. Following continuous sampling over 24 h, samples were assayed for test compound levels by LC-MS/MS. The test compound was detected in receiver fluid from […] following application of test ointment formulation (n=5). The ointment used is disclosed in Assay 7. The receiver fluid was PBS with 0.1% Brij.

For `CCS(=O)(=O)N1[C@@H]2CCC[C@H]1C[C@H](N(C)c1nc(CO)c(F)c(Nc3cc(C)[nH]n3)n1)C2` [Compound (I), (2-(((1R,3s,5S)-9-(ethylsulfonyl)-9-azabicyclo[3.3.1]nonan-3-yl)(methyl)amino)-5-fluoro-6-((5-methyl-1H-pyrazol-3-yl)amino)pyrimidin-4-yl)methanol], the “PD-% Inhibition (mean ± SD) CCL2” value (CCL2 gene expression) was 61.3%, the IC50 [1] was 5.01 nM and the “permeability in human skin assay (in words)” value [2] was “good permeability”. For the same compound, the “MedFlux Permeability, flux permeating through 1 cm2 of human skin (Mean)” value ([2]; n=5, receiver fluid PBS with 0.1% Brij) was 39.1 ng/cm2/sec and the “permeability in human skin assay (in words)” value ([2]; listed as compound (I)) was “adequate permeability”.
